Results: patent US6888015B2, “Sphingolipid synthesis inhibitor” (Japan Science and Technology Agency, priority 2001, dated 2005)

Columns and labels:
[1] = test system: transport of Cer from the ER to the Golgi apparatus; assay: Intracellular redistribution and metabolism of C5-DMB-Cer; format: cell-based, Chinese hamster
Description: After CHO cells seeded in 60-mm dishes are cultured overnight, said CHO cells are labeled with 1 μM C5-DMB-Cer in 1.5 mL of Nutridoma medium at 4° C. for 30 minutes. Then, after obtained said cells are washed 3 times with F12 medium, said cells are incubated in Nutridoma medium in the presence or absence of 2.5 μM HPA-12 for 15 minutes at 4° C., and then further incubated at 33° C. for various periods of time.
After washed with PBS, the chased cells are lysed with 0.1% SDS as mentioned above. The lipids extracted from cell lysate are separated by high performance TLC with a solvent of chloroform/methanol/H2O (volume ratio, 65:25:4). Quantitative measurement of C5-DMB-SM and C5-DMB-Cer are performed by scraping gel from TLC plates, extracting by chloroform/methanol/H2O (volume ratio, 1:2:0.8), and by measuring DMB fluorescence (excitation wave length 480 nm, emission wave length 515 nm) of the extracted product.
After CHO cells grown on the glass coverslip (22-mm diameter) in 35 mm dishes are incubated in F12 medium containing 1 μM C5-DMB-Cer at 4[…] for 30 minutes for pulse label, washed three times with 1 mL of F12 medium, and incubated in 1 mL of Nutridoma medium in the presence or absence of 2.5 μM HPA-12 at 4° C. for 15 minutes. Then, the pulse-labeled cells are incubated at 33° C. for 15 minutes for chase, washed with PBS containing 0.125% glutaraldehyde at 4° C. for 5 minutes. […]

[2] = test system: de novo synthesis of SM in CHO cells; assay: Metabolic labeling of lipids with [14C]serine in CHO cells; format: cell-based, Chinese hamster
Description: CHO cells are cultured in Ham's F12 medium supplemented with 10% newborn bovine serum (NBS), penicillin G (100 unit/mL) and streptomycin sulfate (100 μg/mL) at the temperature of 33° C. and 5% CO2 atmosphere. In the case of HeLa cells, Dulbecco's minimum essential medium is used as a base medium instead of Ham's F12 medium.
Further, Nutridoma medium (Ham's F12 medium containing 1% Nutridoma-SP, product of Roche Molecular Biochemicals, and 25 μg/mL of gentamicin) is used as a serum-free medium. In the case when the medium is supplemented by DMSO or drugs dissolved in DMSO, the concentration of DMSO in culture medium is adjusted to be 0.01%.
CHO cells are seeded at the density of 1.0×10^6 cell in 5 mL of F12 medium containing 10% NBS, by per 60-mm dish, and cultured at 33° C. overnight. Then, the medium is changed to 1.5 mL of Nutridoma medium if necessary, various drugs are added and incubated at 4° C. for 15 minutes. Then, after addition of [^14C] serine (0.75 μCi) or [^14 C] choline (1.0 μCi) to the medium, cells were incubated at 33° C. for various periods of time.
Cells are washed twice with 2 mL of cold phosphate-buffered saline (PBS), and lysed with 900 μL of 0.1% sodium dodecyl sulfate (SDS). Then, 800 μL and 20 μL of lysate are used for lipid extraction and determination of protein concentration, respectively.
For the analysis of lipids labeled with [C^14C] serine, lipids were separated by TLC with a solvent consisting of methylacetate/n-propanol/chloroform/methanol/0.25%KCl (25:25:25:10:9, volume ratio) as a developing solvent.
Radioactive lipid separated on the TLC plates are detected with image analyzer depicted above. After the collection of gels from TLC plates by scraping, the radioactivity of each lipid is determined by liquid scintillation counting and normalized to the protein concentration of cells.

[3] = target: T1, GlcCer synthase (Cricetulus griseus, UniProt A0A9J7CH29); assay: GlcCer synthase enzyme assay, CHO membrane fraction; format: biochemical, Chinese hamster; conditions: 20 μM; substrate C6-NBD-Cer
T1 construct: Membrane fraction prepared from CHO cells is used as an enzyme source; endogenous in cells; host or cells: CHO cells, membrane fraction
T1 sequence (A0A9J7CH29 1-394): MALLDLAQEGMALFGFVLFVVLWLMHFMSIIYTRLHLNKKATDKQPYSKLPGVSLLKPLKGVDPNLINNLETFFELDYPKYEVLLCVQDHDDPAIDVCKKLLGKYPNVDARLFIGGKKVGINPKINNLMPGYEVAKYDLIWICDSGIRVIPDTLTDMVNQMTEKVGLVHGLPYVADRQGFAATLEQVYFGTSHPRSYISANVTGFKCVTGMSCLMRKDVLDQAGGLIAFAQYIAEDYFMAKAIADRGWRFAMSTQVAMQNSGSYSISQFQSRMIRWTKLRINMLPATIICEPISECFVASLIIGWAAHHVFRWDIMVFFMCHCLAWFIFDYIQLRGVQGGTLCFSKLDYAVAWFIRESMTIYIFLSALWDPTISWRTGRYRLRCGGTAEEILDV
Description: Membrane fraction prepared from CHO cells is used as an enzyme source.
Enzyme assays of SM synthesis and GlcCer synthase are carried out by using C6-NBD-Cer as a substrate as disclosed in Document 6.

[4] = test system: CHO cells; assay: Contents of sphingolipids and phospholipids in cells; format: cell-based, Chinese hamster; conditions: 2.5 μM, 2 days
Description: CHO cells are seeded at density of 10×10^6 cells in 20 mL of F12 medium containing 10% NBS by per 150-mm dish, and incubated at 33° C. overnight. Then, after washed twice with 10 mL of serum-free F 12 medium, the cells are incubated in 20 mL of Nutridoma medium supplemented with or without 2.5 μM HPA-12 for 2 days. Each medium is replaced every 24 hours. After washed with PBS, the cells are harvested by scraping, and re-suspended in PBS. Then, lipids are extracted from the cells.
For analysis of phospholipids, extracted lipids are separated by TLC with a solvent of chloroform/methanol/acetic acid/H2O (volume ratio, 25:15:4:2).
Phosphorous contents in phospholipids are measured by the method disclosed in Document 4.
Contents of GlcCer and N-acetyl neuraminil lactosylseramide (GM3) are determined by densitometric analysis of lipids stained with Coomassie Brilliant Blue disclosed in Document 5.
Cer contents are determined by using a sn-1,2-diacylglycerol assay reagent kit (Amersham Pharmcia Biotech).

[5] = [14C]serine labeling, CHO cells
[6] = [14C]serine labeling, weaker than effect on SM (FIG. 2B)

Structure (SMILES): CCCCCCCCCCCC(=O)NC(CO)CC(O)c1ccccc1 (stereo not drawn) [HPA-12, N-(3-hydroxy-1-hydroxymethyl-3-phenylprol)dodecaneamide]
- accumulation of DMB-fluorescence to the perinuclear Golgi region vs untreated control ([1]; 2.5 μM, chase at 33° C. for 15 minutes): clearly lower
- inhibition of conversion of C5-DMB-Cer to C5-DMB-SM ([1]; HPA-12 treated cells, data not shown): 50%
- formation of [14C]SM ([2]; 0.1 μM, 2-hour labeling with [14C]serine (FIG. 2A)): significantly inhibits
- formation of [14C] (SM), level relative to control ([2]; 1 μM, time course up to 5 hours (FIG. 2B)): approximately 30 % of the drug-free control level
- formation of [14C]SM ([2]; 2.5 μM drug, [14C]serine labeling, CHO cells (FIG. 1B)): remarkably inhibited
- concentration at which the inhibitory effect on [14C]SM formation reaches a plateau ([2]; 2-hour labeling with [14C]serine (FIG. 2A)): around 1 μM
- formation of [14C]phosphatidylethanolamine (PE) [2, 5]: does not affect
- formation of [14C]phosphatidylserine (PS) [2, 5]: does not affect
- formation of [14C]Cer [2, 6]: significantly inhibited
- formation of [14C]GlcCer [2, 6]: significantly inhibited
- C6-NBD-GlcCer formed (GlcCer synthase activity) [3]: 325.9 ± 17.1 pmol/mg protein/10 minutes
- inhibition of GlcCer synthase [3]: Neither of SM synthase nor GlcCer synthase is inhibited
- content of GM3 [4]: 120 % of the drug-untreated contro
- content of GlcCer [4]: 150 % of the drug-untreated contro
- content of SM, lower than the drug-free control level by [4]: 30%
- content of ceramide vs untreated [4]: no significant difference
- Cer content ([4]; CHO cells): 0.40 ± 0.13 nmol/mg protein
- GM3 content ([4]; CHO cells): 8.5 ± 0.8 nmol/mg protein
- GlcCer content ([4]; CHO cells): 1.4 ± 0.1 nmol/mg protein
- PC content (composition of phospholipids) ([4]; CHO cells): 47.5 ± 0.2 % of total lipids recovered
- PE content (composition of phospholipids) ([4]; CHO cells): 30.6 ± 0.3 % of total lipids recovered
- PI/PS content (composition of phospholipids) ([4]; CHO cells): 13.4 ± 0.3 % of total lipids recovered
- SM content (composition of phospholipids) ([4]; CHO cells): 8.4 ± 0.1 % of total lipids recovered
- content of total phospholipids ([4]; drug-treated cells): 315±2 nmol/mg protein
